# Assay results taken from ChEMBL document CHEMBL3734692, “Design and synthesis of 2-oxindole based multi-targeted inhibitors of PDK1/Akt signaling pathway for the treatment of glioblastoma multiforme” (Eur J Med Chem, 2015).
# The source made the active and inactive calls. No cut-off for these calls is given here.
# Columns and labels:
# [1] = Antiproliferative activity against human U118MG cells assessed as inhibition of cell growth after 96 hrs by WST1 assay; format: functional; conditions: U-118-MG
# [2] = target: AMP-activated protein kinase, AMPK (Homo sapiens) (UniProt P54646+O43741+P54619+Q9UGJ0+Q9Y478+Q13131+Q9UGI9); assay: Inhibition of AMPK A2/B1/G1 (unknown origin) at 1 uM by selectscreen kinase profiling assay in presence of ATP; format: protein-complex assay
# [3] = target: Tyrosine-protein kinase JAK1 (Homo sapiens) (UniProt P23458); assay: Inhibition of JAK1 (unknown origin) at 1 uM by selectscreen kinase profiling assay in presence of ATP
# Tyrosine-protein kinase JAK1 (Homo sapiens), sequence (P23458 whole entry): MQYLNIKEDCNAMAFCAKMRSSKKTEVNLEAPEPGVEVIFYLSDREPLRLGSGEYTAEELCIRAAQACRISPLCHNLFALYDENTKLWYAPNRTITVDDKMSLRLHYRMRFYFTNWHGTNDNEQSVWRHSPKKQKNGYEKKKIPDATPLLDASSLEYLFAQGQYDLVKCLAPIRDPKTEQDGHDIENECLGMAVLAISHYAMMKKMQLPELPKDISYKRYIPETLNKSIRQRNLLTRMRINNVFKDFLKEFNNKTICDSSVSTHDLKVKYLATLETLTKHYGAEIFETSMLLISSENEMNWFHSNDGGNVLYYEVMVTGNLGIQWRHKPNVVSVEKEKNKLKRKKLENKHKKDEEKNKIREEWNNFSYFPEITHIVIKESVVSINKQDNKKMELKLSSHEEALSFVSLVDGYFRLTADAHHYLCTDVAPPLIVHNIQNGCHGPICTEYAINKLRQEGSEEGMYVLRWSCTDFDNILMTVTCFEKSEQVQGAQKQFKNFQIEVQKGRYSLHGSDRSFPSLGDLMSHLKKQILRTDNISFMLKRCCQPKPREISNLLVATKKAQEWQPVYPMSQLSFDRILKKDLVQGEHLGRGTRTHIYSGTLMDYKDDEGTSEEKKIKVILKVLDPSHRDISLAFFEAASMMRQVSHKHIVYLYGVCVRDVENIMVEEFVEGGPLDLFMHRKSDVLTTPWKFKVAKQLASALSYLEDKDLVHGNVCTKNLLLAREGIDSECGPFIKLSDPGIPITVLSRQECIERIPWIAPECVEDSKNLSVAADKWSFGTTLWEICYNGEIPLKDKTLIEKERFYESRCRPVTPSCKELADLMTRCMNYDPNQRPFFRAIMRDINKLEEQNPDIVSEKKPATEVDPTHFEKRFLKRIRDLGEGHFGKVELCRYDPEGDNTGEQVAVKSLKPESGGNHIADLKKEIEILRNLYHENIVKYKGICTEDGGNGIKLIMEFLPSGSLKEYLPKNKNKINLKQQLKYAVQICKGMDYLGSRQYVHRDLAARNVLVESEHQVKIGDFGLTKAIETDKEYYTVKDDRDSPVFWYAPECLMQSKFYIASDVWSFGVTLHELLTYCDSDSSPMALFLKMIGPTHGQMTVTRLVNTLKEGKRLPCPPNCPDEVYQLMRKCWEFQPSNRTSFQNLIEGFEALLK
# [4] = target: Dual specificity mitogen-activated protein kinase kinase 2 (Homo sapiens) (UniProt P36507); assay: Inhibition of MEK2 (unknown origin) at 1 uM by selectscreen kinase profiling assay in presence of ATP
# [5] = target: Glycogen synthase kinase-3 alpha (Homo sapiens, UniProt P49840); assay: Inhibition of GSK3alpha (unknown origin) at 1 uM by selectscreen kinase profiling assay in presence of ATP
# [6] = Cell cycle arrest in human GSC derived from ANGM-CSS cells assessed as accumulation at S phase at 1 uM after 7 days by based fluorescent reagent based cell analysis (reference value: 1.9%); format: functional
# [7] = target: Serine/threonine-protein kinase MARK1 (Homo sapiens) (UniProt Q9P0L2); assay: Inhibition of MARK1 (unknown origin) at 1 uM by selectscreen kinase profiling assay in presence of ATP
# Serine/threonine-protein kinase MARK1 (Homo sapiens), sequence (Q9P0L2 whole entry, looked up): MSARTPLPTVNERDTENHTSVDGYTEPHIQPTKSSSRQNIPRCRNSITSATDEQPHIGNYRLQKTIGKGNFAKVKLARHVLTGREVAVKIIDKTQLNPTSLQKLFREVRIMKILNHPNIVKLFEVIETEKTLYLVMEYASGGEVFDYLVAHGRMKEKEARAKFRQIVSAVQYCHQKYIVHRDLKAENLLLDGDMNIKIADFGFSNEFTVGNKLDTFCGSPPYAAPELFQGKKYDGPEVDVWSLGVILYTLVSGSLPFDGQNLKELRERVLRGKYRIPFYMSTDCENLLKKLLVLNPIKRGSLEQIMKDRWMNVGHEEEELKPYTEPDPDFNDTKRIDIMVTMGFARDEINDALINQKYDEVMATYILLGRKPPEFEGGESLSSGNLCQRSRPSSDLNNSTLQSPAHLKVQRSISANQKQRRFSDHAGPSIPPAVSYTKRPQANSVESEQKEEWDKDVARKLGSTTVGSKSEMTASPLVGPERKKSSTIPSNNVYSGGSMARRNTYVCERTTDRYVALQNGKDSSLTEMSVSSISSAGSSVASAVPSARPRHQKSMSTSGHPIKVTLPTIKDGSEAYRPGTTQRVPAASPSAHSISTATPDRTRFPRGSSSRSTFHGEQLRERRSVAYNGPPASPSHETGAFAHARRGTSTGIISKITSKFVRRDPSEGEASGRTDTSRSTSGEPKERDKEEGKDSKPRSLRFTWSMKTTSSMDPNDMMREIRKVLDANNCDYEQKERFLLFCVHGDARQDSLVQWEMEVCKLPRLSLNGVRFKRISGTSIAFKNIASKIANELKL
# [8] = target: Mitogen-activated protein kinase 3 (Homo sapiens) (UniProt P27361); assay: Inhibition of ERK1 (unknown origin) at 1 uM by selectscreen kinase profiling assay in presence of ATP
# [9] = Induction of apoptosis in human GSC derived from ANGM-CSS cells assessed as live cells at 1 uM after 7 days by annexin V-FITC/7-AAD dual staining based cell analysis (reference value: 91.88%); format: functional
# [10] = target: Casein kinase I isoform gamma-1 (Homo sapiens) (UniProt Q9HCP0); assay: Inhibition of CK1gamma1 (unknown origin) at 1 uM by selectscreen kinase profiling assay in presence of ATP
# [11] = target: RAC-beta serine/threonine-protein kinase (Homo sapiens) (UniProt P31751); assay: Inhibition of AKT2 (unknown origin) at 1 uM by selectscreen kinase profiling assay in presence of ATP
# RAC-beta serine/threonine-protein kinase (Homo sapiens), sequence (P31751 whole entry, looked up): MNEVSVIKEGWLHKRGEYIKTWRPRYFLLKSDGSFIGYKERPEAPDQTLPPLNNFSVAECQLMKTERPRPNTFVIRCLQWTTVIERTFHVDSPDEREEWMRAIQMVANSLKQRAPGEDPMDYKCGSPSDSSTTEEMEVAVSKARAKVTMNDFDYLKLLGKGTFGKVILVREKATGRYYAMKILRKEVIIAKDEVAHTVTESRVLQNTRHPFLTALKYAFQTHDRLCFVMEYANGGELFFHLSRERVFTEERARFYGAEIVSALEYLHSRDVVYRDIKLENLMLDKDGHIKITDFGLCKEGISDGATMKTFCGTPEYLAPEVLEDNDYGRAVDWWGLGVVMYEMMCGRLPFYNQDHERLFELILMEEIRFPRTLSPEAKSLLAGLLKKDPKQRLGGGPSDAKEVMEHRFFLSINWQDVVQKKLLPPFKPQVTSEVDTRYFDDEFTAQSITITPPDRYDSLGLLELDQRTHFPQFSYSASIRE
# [12] = target: Mitogen-activated protein kinase 1 (Homo sapiens) (UniProt P28482); assay: Inhibition of ERK2 (unknown origin) at 1 uM by selectscreen kinase profiling assay in presence of ATP
# [13] = target: Tyrosine-protein kinase ABL1 (Homo sapiens) (UniProt P00519); assay: Inhibition of ABL1 (unknown origin) at 1 uM by selectscreen kinase profiling assay in presence of ATP
# [14] = Antiproliferative activity against human U118MG cells assessed as inhibition of cell growth after 120 hrs by WST1 assay; format: functional; conditions: U-118-MG
# [15] = target: MAP kinase-activated protein kinase 2 (Homo sapiens) (UniProt P49137); assay: Inhibition of MAPKAPK2 (unknown origin) at 1 uM by selectscreen kinase profiling assay in presence of ATP
# ANGM-CSS = assay: Effect on human GSC morphology derived from ANGM-CSS cells assessed as outgrowth of cellular processes at 1 uM after 7 days by microscopic analysis; format: functional, cell-based
# [16] = target: Tyrosine-protein kinase ITK/TSK (Homo sapiens) (UniProt Q08881); assay: Inhibition of ITK (unknown origin) at 1 uM by selectscreen kinase profiling assay in presence of ATP
# Tyrosine-protein kinase ITK/TSK (Homo sapiens), sequence (Q08881 whole entry): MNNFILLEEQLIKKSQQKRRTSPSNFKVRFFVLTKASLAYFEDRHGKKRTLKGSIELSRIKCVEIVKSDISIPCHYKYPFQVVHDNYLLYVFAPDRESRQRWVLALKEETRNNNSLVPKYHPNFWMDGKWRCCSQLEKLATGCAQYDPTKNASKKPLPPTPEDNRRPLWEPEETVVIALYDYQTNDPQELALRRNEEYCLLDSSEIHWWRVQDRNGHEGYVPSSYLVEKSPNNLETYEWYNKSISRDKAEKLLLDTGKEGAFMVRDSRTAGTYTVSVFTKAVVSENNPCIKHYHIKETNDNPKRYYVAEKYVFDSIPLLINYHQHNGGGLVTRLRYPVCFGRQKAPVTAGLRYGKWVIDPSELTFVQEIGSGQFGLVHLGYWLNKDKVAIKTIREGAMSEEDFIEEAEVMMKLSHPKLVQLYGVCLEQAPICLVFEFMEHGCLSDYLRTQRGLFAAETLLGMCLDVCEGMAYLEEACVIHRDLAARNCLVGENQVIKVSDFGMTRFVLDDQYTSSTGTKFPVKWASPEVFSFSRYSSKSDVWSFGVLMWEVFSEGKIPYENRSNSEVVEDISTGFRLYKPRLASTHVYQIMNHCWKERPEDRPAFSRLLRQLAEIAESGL
# [17] = target: CDK2/Cyclin A2 (Homo sapiens) (UniProt P24941+P20248); assay: Inhibition of CDK2/cyclin A (unknown origin) at 1 uM by selectscreen kinase profiling assay in presence of ATP; format: protein-complex assay
# [18] = target: Protein kinase C alpha type (Homo sapiens) (UniProt P17252); assay: Inhibition of PKCalpha (unknown origin) at 1 uM by selectscreen kinase profiling assay in presence of ATP
# [19] = target: CDK9/cyclin T1 (Homo sapiens) (UniProt O60563+P50750); assay: Inhibition of CDK9/cyclin T1 (unknown origin) at 1 uM by selectscreen kinase profiling assay in presence of ATP; format: protein-complex assay
# [20] = target: Serine/threonine-protein kinase Chk2 (Homo sapiens) (UniProt O96017); assay: Inhibition of CHEK2 (unknown origin) at 1 uM by selectscreen kinase profiling assay in presence of ATP
# [21] = target: CDK7/Cyclin H/MNAT1 (Homo sapiens) (UniProt P51946+P50613+P51948); assay: Inhibition of CDK7/cyclin H/MNAT1 (unknown origin) at 1 uM by selectscreen kinase profiling assay in presence of ATP; format: protein-complex assay
# [22] = target: Mitogen-activated protein kinase 8 (Homo sapiens) (UniProt P45983); assay: Inhibition of JNK1 (unknown origin) at 1 uM by selectscreen kinase profiling assay in presence of ATP
# [23] = target: Dual specificity protein kinase CLK1 (Homo sapiens) (UniProt P49759); assay: Inhibition of CLK1 (unknown origin) at 1 uM by selectscreen kinase profiling assay in presence of ATP
# [24] = Cell cycle arrest in human ANGM-CSS cells assessed as accumulation at S phase at 1 uM after 7 days by based fluorescent reagent based cell analysis (reference value: 4.1%); format: functional
# [25] = target: Phosphatidylinositol 4,5-bisphosphate 3-kinase catalytic subunit gamma isoform (Homo sapiens) (UniProt P48736); assay: Inhibition of PIK3Cgamma (unknown origin) at 1 uM by selectscreen kinase profiling assay in presence of ATP
# [26] = target: Protein kinase C zeta type (Homo sapiens) (UniProt Q05513); assay: Inhibition of PKCzeta (unknown origin) at 1 uM by selectscreen kinase profiling assay in presence of ATP
# [27] = target: Protein kinase C delta type (Homo sapiens) (UniProt Q05655); assay: Inhibition of PKCdelta (unknown origin) at 1 uM by selectscreen kinase profiling assay in presence of ATP
# [28] = target: PI3-kinase p110-alpha/p85-alpha (Homo sapiens) (UniProt P27986+P42336); assay: Inhibition of PIK3CA/PIK3R1 (unknown origin) at 1 uM by selectscreen kinase profiling assay in presence of ATP; format: protein-complex assay
# [29] = target: Rho-associated protein kinase 1 (Homo sapiens) (UniProt Q13464); assay: Inhibition of ROCK1 (unknown origin) at 1 uM by selectscreen kinase profiling assay in presence of ATP
# Rho-associated protein kinase 1 (Homo sapiens), sequence (Q13464 2-1354 limits assumed): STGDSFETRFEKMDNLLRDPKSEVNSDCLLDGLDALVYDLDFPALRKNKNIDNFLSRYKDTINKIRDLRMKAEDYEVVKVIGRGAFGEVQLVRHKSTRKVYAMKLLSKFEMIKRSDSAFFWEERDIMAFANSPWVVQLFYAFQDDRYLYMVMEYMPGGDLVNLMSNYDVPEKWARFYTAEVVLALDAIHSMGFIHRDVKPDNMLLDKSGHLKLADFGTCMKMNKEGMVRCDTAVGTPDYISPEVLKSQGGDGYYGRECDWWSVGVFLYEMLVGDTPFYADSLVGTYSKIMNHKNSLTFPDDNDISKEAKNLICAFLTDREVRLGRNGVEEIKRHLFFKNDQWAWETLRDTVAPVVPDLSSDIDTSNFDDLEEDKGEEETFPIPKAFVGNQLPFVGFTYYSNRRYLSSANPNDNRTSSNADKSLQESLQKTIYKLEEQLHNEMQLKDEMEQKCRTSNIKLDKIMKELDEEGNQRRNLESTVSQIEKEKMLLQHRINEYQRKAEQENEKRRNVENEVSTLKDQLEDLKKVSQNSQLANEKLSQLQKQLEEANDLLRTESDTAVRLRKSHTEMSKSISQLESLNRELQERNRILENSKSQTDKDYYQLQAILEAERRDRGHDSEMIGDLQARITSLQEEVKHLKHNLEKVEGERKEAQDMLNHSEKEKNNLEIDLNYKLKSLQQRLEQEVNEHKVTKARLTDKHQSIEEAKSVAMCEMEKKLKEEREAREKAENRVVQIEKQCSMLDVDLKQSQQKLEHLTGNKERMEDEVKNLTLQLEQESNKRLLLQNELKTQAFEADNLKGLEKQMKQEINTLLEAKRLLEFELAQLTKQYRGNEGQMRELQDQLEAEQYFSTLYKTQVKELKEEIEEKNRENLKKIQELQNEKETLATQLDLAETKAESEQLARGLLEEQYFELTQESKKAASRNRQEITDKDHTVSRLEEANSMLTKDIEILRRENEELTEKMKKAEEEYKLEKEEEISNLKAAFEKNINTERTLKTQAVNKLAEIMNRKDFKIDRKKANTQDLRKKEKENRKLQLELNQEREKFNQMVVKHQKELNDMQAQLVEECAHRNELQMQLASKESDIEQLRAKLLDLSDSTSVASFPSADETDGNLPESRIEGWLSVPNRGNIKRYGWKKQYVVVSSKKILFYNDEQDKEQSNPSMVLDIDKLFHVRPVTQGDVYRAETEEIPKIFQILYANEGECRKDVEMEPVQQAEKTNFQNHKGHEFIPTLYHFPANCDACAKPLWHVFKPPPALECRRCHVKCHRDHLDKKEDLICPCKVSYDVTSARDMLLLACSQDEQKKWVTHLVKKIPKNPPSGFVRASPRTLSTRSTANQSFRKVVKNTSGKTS
# [30] = target: Mitogen-activated protein kinase 14 (Homo sapiens) (UniProt Q16539); assay: Inhibition of p38 alpha (unknown origin) at 1 uM by selectscreen kinase profiling assay in presence of ATP
# [31] = target: G protein-coupled receptor kinase 5 (Homo sapiens) (UniProt P34947); assay: Inhibition of GRK5 (unknown origin) at 1 uM by selectscreen kinase profiling assay in presence of ATP
# Homo sapiens = species: Homo sapiens; assay: Inhibition of PKCbeta I (unknown origin) at 1 uM by selectscreen kinase profiling assay in presence of ATP
compound,measurement,setting,value
COc1cc2c(cc1OC)CN(CC(=O)Nc1ccc3c(c1)/C(=C/c1cnc[nH]1)C(=O)N3)CC2,GI50,[1],29.9 µM
same,inhibition,[2],30%
same,inhibition,[3],-1%
same,inhibition,[4],37%
same,inhibition,[5],59%
same,Activity,[6],1%
same,inhibition,[7],27%
same,inhibition,[8],37%
same,Activity,[9],81.32%
same,inhibition,[10],-4%
same,inhibition,[11],2%
same,inhibition,[12],26%
same,inhibition,[13],55%
same,GI50,[14],16.7 µM
same,inhibition,[15],-2%
same,Activity,ANGM-CSS,Active
same,inhibition,[16],-2%
same,inhibition,[17],30%
same,inhibition,[18],-2%
same,inhibition,[19],9%
same,inhibition,[20],24%
same,inhibition,[21],-8%
same,inhibition,[22],5%
same,inhibition,[23],8%
same,Activity,[24],4.1%
same,inhibition,[25],5%
same,inhibition,[26],0%
same,inhibition,[27],-5%
same,inhibition,[28],-6%
same,inhibition,[29],8%
same,inhibition,[30],4%
same,inhibition,[31],10%
same,inhibition,Homo sapiens,-6%
